Experimental data: patent US20250361240A1, “PYRANOPYRIDINE COMPOUND, PROCESS FOR PREPARING THE SAME, PHARMACEUTICAL COMPOSITION AND USE THEREOF” (Zhejiang Yangli Pharmaceutical Technology Co., Ltd., priority 2024, published 2025)
pIC50: −log10 of the molar value. Where two headings read alike, the source gives them in different places.

How the values were obtained:
human CYP11B2 = human CYP11B2 (Homo sapiens (Human), UniProt P19099); test: Inhibitory activity against hCYP11B2 in G-402 CYP11B2 high expression stable transformants (aldosterone HTRF); type: cell-based
human CYP11B2, sequence (P19099 25-503): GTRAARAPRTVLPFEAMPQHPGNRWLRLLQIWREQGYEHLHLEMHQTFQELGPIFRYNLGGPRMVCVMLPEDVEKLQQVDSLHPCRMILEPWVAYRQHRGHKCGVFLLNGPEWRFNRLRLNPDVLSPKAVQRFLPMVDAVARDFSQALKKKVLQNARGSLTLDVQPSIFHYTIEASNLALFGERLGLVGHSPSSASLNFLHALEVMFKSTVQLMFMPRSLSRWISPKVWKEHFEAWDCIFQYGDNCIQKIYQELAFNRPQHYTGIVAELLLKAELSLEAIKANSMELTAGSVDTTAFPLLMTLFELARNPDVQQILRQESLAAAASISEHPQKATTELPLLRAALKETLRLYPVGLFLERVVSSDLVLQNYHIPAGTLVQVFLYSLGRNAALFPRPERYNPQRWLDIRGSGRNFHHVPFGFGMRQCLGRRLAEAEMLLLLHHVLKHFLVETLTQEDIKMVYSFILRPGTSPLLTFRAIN
Method: 1. Experimental System: G-402 CYP11B2 or CYP11B1 High Expression Stable Transformants
The above-mentioned high-expression stable transformants were constructed based on human […] cell line G-402. The artificial lentiviruses were introduced into human CYP11B2 (NM_000498.3) and CYP11B1 (NM_000497.4), respectively.
Maintenance medium: McCoy's 5A (modified, #16600082, GIBCO)+10% FBS (GIBCO)+1 μg/mL puromycin (A1113803, GIBCO).
Resuscitation and seeding medium: McCoy's 5A (modified, #16600082, GIBCO)+10% FBS (GIBCO).
Reaction medium: DMEM/F12 (#11320033, GIBCO)+2.5% activated charcoal filtered FBS (S11695, R & D).
Seeding: Cells were cultured to a suitable state after resuscitation with maintenance medium, and 96-well flat plates were seeded with seeding medium according to 1×10^4/100 μL/well (unified cell volume).
Changing solution: The supernatant was aspirated and discarded after seeding overnight (>12 hours) and adherence. 100-150 μL/well serum-free medium was added, and after being aspirated. After aspiration, 50 μL/well reaction medium was added for later use.
Formulation: Compound was diluted with reaction medium containing 0.4 μM substrate (final experimental concentration is 0.2 μM):
CYP11B2 substrate: 11-deoxycorticosterone (11-deoxycorticosterone, S4243, selleckchem). The final reaction concentration was 0.2 μM
Loading: The above compound dilutions were added to the cell plates at 50 μL/well. The background and control wells were set.
Treating and sampling: The cell plates were incubated in a cell incubator for 16 hours after loading, and then each cell plate was centrifuged at 450 g for 2 min. 75 μL supernatant was transferred to a collection plate and frozen at −80° C. for future use (or direct detection).
Detection: Homogeneous time-resolved fluorescence kit (Cisbio HTRF kit, Cat.64ALDPEG, Cat.62CRTPEG) was used to determine the concentration of aldosterone or cortisol in the supernatant.
Analysis: The absolute IC50 (Abs IC50) for each compound was calculated using a four parameter fit.

CYP1A2 = CYP1A2 (Homo sapiens (Human), UniProt P05177); test: In vitro inhibitory activity against common CYP450 enzymes: CYP1A2; type: in vitro ADME; details: microsomes, substrate Phenacetin; read-out: IC50 CYP1A2
CYP1A2, sequence (P05177 whole entry): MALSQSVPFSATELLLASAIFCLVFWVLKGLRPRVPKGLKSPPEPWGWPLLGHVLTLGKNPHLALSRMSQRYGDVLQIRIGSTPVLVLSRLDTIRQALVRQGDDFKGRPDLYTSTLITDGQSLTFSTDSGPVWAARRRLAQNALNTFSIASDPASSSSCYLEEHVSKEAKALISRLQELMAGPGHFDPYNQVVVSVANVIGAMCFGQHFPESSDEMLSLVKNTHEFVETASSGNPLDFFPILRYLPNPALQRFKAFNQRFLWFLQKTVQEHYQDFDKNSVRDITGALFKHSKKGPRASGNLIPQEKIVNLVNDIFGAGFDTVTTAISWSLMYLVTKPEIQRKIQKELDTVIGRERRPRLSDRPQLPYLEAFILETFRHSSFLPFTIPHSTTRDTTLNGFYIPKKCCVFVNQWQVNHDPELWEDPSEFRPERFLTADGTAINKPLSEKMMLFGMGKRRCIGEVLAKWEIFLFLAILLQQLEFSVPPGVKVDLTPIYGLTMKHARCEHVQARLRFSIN
Method: (§1) A working solution of the test compound was prepared in a solvent of dimethyl sulfoxide (DMSO) (starting at a final concentration of 50 μM, 3-fold dilution of 7 concentration points). The corresponding microsomes (CORNING, Cat No.452117) and the corresponding substrate solution were prepared (components were shown in Table 2). The working solution of the test compound and the corresponding microsomes were mixed with the corresponding substrate solution and the HLM working solution. The mixture was preheated in a 37.0° C. water bath for 10 min. NADPH cofactor (BONTAC, Cat No.BT04) was added. The resultant mixture was incubated for 10 min in a 37.0° C. water bath. The reaction was terminated by adding cold stop solution. [table] [table] The sample was centrifuged at 4000 rpm for 20 min to precipitate protein and the supernatant was transferred to HPLC water and shaken for 10 min.

CYP2C9 = CYP2C9 (Homo sapiens (Human), UniProt P11712); test: In vitro inhibitory activity against common CYP450 enzymes: CYP2C9; type: in vitro ADME; details: microsomes, substrate Diclofenac
CYP2C9, sequence (P11712 whole entry): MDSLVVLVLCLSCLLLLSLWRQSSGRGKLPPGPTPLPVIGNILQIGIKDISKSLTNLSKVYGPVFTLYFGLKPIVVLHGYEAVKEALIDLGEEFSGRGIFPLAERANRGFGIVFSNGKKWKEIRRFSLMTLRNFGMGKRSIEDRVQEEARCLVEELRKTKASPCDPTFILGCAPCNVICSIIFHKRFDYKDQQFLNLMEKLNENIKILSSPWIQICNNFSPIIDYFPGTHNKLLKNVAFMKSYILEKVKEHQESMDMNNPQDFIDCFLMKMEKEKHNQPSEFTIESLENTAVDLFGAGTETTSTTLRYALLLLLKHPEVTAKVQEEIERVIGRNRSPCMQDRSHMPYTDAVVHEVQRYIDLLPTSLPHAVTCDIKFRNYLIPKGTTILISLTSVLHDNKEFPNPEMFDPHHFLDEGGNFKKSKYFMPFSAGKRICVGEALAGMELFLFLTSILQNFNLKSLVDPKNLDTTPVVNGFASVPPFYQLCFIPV
Method: as §1

CYP2D6 = CYP2D6 (Homo sapiens (Human), UniProt P10635); test: In vitro inhibitory activity against common CYP450 enzymes: CYP2D6; type: in vitro ADME; details: microsomes, substrate Dextromethorphan
CYP2D6, sequence (P10635 whole entry): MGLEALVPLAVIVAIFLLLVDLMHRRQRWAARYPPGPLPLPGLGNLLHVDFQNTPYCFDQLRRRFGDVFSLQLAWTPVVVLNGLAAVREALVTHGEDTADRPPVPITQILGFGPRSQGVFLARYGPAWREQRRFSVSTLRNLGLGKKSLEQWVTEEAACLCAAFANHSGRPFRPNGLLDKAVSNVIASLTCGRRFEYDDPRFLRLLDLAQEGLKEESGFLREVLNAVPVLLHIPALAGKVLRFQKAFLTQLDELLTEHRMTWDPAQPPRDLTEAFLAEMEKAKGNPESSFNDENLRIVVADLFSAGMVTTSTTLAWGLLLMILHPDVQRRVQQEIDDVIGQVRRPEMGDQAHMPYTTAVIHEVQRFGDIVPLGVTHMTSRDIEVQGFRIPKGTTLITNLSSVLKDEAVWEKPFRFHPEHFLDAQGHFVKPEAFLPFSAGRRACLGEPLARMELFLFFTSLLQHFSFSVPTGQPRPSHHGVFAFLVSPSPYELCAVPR
Method: as §1

CYP3A = CYP3A (Homo sapiens, UniProt P08684); test: In vitro inhibitory activity against common CYP450 enzymes: CYP3A (midazolam); type: in vitro ADME; details: human, human liver microsomes, probe Midazolam, substrate Midazolam
CYP3A, sequence (P08684 2-503 limits assumed): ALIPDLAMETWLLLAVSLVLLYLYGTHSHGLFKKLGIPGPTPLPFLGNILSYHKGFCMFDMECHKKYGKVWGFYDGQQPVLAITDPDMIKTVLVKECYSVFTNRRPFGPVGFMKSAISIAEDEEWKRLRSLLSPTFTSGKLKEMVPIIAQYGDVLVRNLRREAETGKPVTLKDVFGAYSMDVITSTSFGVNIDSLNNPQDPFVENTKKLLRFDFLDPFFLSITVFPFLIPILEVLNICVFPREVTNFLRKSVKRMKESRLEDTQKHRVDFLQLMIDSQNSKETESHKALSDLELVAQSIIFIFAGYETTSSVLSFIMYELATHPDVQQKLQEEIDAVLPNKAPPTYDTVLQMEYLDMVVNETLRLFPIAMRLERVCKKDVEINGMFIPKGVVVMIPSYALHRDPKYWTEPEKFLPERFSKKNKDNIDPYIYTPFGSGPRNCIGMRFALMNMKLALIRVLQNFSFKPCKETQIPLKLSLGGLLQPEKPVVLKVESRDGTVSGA
Method: as §1

aldosterone synthesis = test: Pharmacodynamic test in cynomolgus monkeys with ACTH stimulation: aldosterone in plasma; type: in vivo, cynomolgus monkeys (Macaca fascicularis)
Description: (§2) Adult cynomolgus monkeys (Macaca fascicularis) with suitable body weight and age were selected. 1 male and 1 female cynomolgus monkeys were used for experiment. The adaptation period was 1 week. On the day of the experiment, monkeys were individually housed in stainless steel mesh cages for testing.
(§3) Oral treatment and ACTH working solution (working solution diluted to the desired concentration in PBS sterile solution by ultrapure water filtration through a 0.22 μm filter using Tetracosactrin (HY-P0060, MCE)) were administered as follows: • T=0, 2 monkeys in each group were orally administered 0.5 mg/kg (compound was suspended in 5% aqueous sodium hydroxymethylcellulose solution as vehicle) in a fixed volume of 2 mL/kg; • T=+1 hour (i.e., 1 hour after administration), 14.5 μg/kg of the aforementioned ACTH working solution was injected intramuscularly.
(§4) Sampling test: Blood samples (collected in EDTA anticoagulant tubes) were collected before oral administration (Pre-dose) and 0.5 h, 1 h, 2 h, 4 h, 6 h and 12 h after administration for cortisol concentration measurement in plasma. The blood was centrifuged at 10000 rpm for 15 minutes at 4° C., followed by separation of the plasma and uniform storage at −80° C. for further analysis using an Roche biochemical analyzer to detect aldosterone and cortisol in plasma, and a portion of the plasma (0.5 h, 1 h, 2 h, 4 h, 6 h, and 12 h after administration, and an additional blood collection after 24 h) was taken simultaneously to determine the pharmacokinetic parameters by LC/MS.
(§5) The above experiment was repeated except that: T=0, two monkeys in each group were orally administered at a dose of 0.05 mg/kg (compound was suspended in 5% aqueous sodium hydroxymethylcellulose as vehicle) in a fixed volume of 2 mL/kg.

[1] = Pharmacokinetic test in cynomolgus monkeys (LC/MS); type: in vivo, cynomolgus monkeys (Macaca fascicularis); details: both sexes, cynomolgus monkey, plasma; for AUC(0-t): read-out: AUC0-24 h
Description: as §2, §3, §4, §5

aldosterone synthase = aldosterone synthase (Homo sapiens (Human), UniProt P19099); details: phase I clinical study, cited from earlier work
aldosterone synthase, sequence (P19099 25-503): as the sequence (P19099 25-503) above

For `CCC(=O)N[C@@H]1CCCc2c(-c3ccc4c(c3)CCC(=O)N4C)cncc21` [Baxdrostat, reference compound], the pIC50 (human CYP11B2; G-402 CYP11B2 cells, 0.2 μM 11-deoxycorticosterone, 16 hours, read-out: hCYP11B2 (AS) Abs IC50) was 7.55, the “hCYP11B ½ Selectivity Fold” value (human CYP11B2; hCYP11B1 IC50 relative to hCYP11B2 IC50) was 119.99 Fold and the pIC50 (CYP1A2) was under 4.30. The pIC50 (CYP2C9) was 4.45, the pIC50 (CYP2D6) was under 4.30 and the IC50 at 10 min (CYP3A) was over 50 µM. For the same compound, the “Aldosterone Concentration in Plasma” value (aldosterone synthesis; 0.05 mg/kg oral, 0.5 h) was 846.13 pg/mL, the “Aldosterone Concentration in Plasma” value (aldosterone synthesis; 0.05 mg/kg oral, 1 h (ACTH at +1 hour)) was 964.09 pg/mL and the “Aldosterone Concentration in Plasma” value (aldosterone synthesis; 0.05 mg/kg oral, 2 h) was 568.08 pg/mL. The “Aldosterone Concentration in Plasma” value (aldosterone synthesis; 0.05 mg/kg oral, 4 h) was 119.97 pg/mL, the “Aldosterone Concentration in Plasma” value (aldosterone synthesis; 0.05 mg/kg oral, 6 h) was 101.14 pg/mL and the “Aldosterone Concentration in Plasma” value (aldosterone synthesis; 0.05 mg/kg oral, 12 h) was 139.85 pg/mL. For the same compound, the “Aldosterone Concentration in Plasma” value (aldosterone synthesis; 0.05 mg/kg oral, Pre-dose) was 292.42 pg/mL, the “Aldosterone Concentration in Plasma” value (aldosterone synthesis; 0.5 mg/kg oral, 0.5 h) was 593.37 pg/mL and the “Aldosterone Concentration in Plasma” value (aldosterone synthesis; 0.5 mg/kg oral, 1 h (ACTH at +1 hour)) was 361.74 pg/mL. For the same compound, the “Aldosterone Concentration in Plasma” value (aldosterone synthesis; 0.5 mg/kg oral, 2 h) was 119.96 pg/mL, the “Aldosterone Concentration in Plasma” value (aldosterone synthesis; 0.5 mg/kg oral, 4 h) was 83.97 pg/mL and the “Aldosterone Concentration in Plasma” value (aldosterone synthesis; 0.5 mg/kg oral, 6 h) was 86.11 pg/mL. The “Aldosterone Concentration in Plasma” value (aldosterone synthesis; 0.5 mg/kg oral, 12 h) was 92.61 pg/mL, the “Aldosterone Concentration in Plasma” value (aldosterone synthesis; 0.5 mg/kg oral, Pre-dose) was 126.77 pg/mL and the Cmax ([1]; 0.05 mg/kg, 0.05mpk oral) was 6.13 ng/mL. It also gave a Tmax ([1]; 0.05 mg/kg, 0.05mpk oral) of 2 h, a half-life ([1]; 0.05 mg/kg, 0.05mpk oral) of 10.9 h and an AUC(0-t) ([1]; 0.05 mg/kg, 0.05mpk oral) of 90.3 ng·h/mL. The Cmax ([1]; 0.5 mg/kg, 0.5mpk oral) was 56.1 ng/mL, the Tmax ([1]; 0.5 mg/kg, 0.5mpk oral) was 2 h and the half-life ([1]; 0.5 mg/kg, 0.5mpk oral) was 9.25 h. The AUC(0-t) ([1]; 0.5 mg/kg, 0.5mpk oral) was 606 ng·h/mL, the “reduction of aldosterone level in plasma” value (aldosterone synthase; dose-dependent) was “more than 70%” and the “inhibition of aldosterone synthase relative to inhibition of cortisol synthesis” value (aldosterone synthase) was 100 times.
